How the values were obtained:
Human P450scc = biological target: T1, Human P450scc (Homo sapiens, UniProt P05108); experiment: Side-chain cleavage kinetics by human cytochrome P450scc in phospholipid vesicles; format: biochemical; settings: for kcat: substrate and P450scc in dioleoylphosphatidylcholine vesicles containing cardiolipin, ±SE
T1 construct: made in house; host or cells: Escherichia coli
T1 sequence (P05108 40-521): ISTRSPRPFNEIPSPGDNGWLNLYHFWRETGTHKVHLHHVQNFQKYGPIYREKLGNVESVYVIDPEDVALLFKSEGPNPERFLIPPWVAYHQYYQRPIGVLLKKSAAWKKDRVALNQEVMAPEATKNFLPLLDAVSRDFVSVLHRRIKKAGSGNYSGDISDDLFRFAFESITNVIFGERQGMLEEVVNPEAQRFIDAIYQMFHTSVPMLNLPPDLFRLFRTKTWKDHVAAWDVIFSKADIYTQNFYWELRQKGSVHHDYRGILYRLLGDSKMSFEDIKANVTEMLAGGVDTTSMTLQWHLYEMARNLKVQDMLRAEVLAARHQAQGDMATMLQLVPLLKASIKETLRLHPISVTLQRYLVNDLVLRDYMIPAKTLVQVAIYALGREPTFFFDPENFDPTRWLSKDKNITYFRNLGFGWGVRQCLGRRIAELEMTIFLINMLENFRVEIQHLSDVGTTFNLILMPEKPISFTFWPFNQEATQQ
T1 sequence (P10109 61-184 partner): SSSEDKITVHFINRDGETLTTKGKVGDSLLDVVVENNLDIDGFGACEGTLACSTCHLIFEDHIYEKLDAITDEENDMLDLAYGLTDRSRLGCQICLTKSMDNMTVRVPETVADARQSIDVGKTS
Protocol: (§1) Large-scale reactions (50 mL) to cleave the side chain of 7-DHC were performed with purified bovine P450scc and its electron-transfer system in a manner similar to that described for cholesterol (41). The incubation mixture comprised 510 μM phospholipids vesicles (dioleoylphosphatidylcholine plus 15 mol % cardiolipin) with a substrate to phospholipids molar ration of 0.2 50 μM NADPH, 2 mM glucose 6-phosphate, 2 U-mL^−1 glucose 6-phosphate dehydrogenase, 0.3 μM adrenodoxin reductase, 6.5 μM adrenodoxin, 1.0 μM cytochrome P450scc and buffer, pH 7.4 (41). After incubation at 37° C. for 3 h, the mixture was extracted three times with 50 mL methylene chloride and dried under nitrogen at 35° C. Products were purified by preparative TLC on silica gel G with three developments in hexane/ethyl acetate (3:1 v/v) and products eluted from the silica gel with chloroform/methanol (1:1, v/v). Samples were dried under nitrogen and shipped for analysis on dry ice. Small-scale reactions (0.25 mL) to determine the kinetics of 7-DHC and cholesterol metabolism were performed with either bovine or human cytochrome P450scc as described for cholesterol (41). The amount of 7-DHP produced from 7-DHC was measured by RIA [25] using purified 7-DHP as standard.
Table 2 contains the kinetic parameters for side-cahin cleavage of 7-DHC and cholesterol by bovine and human cytochromes P450scc. Kinetic parameters were determined with substrates and P450scc incorporated into dioleoylphosphatidylcholine (PL) vesicles containing cardiolipin. Values for Kcat and Km are ±SE and are expressed as min^−1 and mol sterol-mol PL^−1, respectively. They were obtained from fitting hyperbolic curves to the kinetic data using […].

Bovine P450scc [1] = biological target: T2, Bovine P450scc (Bos taurus, UniProt P00189); experiment: Side-chain cleavage kinetics by bovine cytochrome P450scc in phospholipid vesicles; format: biochemical; settings: for kcat: substrate and P450scc in dioleoylphosphatidylcholine vesicles containing cardiolipin, ±SE
T2 construct: isolated from adrenals; from tissue; host or cells: bovine adrenals
T2 sequence (P00189 40-520): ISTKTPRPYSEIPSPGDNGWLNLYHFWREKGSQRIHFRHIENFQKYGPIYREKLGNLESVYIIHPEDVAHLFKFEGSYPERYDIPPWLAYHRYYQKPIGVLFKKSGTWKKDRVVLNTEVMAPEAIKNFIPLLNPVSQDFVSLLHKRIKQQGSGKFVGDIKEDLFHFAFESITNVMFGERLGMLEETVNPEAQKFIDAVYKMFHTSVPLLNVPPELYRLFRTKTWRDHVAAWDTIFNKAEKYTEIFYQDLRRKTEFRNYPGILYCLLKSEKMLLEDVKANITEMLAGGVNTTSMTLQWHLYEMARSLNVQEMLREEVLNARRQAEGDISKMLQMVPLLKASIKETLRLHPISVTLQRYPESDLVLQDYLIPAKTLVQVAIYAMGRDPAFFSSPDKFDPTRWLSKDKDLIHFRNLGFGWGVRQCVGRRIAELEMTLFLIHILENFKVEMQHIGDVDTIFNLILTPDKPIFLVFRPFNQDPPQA
T2 sequence (P00257 59-186 partner): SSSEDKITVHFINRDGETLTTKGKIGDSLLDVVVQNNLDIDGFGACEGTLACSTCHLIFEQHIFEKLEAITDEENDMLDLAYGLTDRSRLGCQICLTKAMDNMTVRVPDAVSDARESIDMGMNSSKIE
Protocol: as §1
Table 2 contains the kinetic parameters for side-cahin cleavage of 7-DHC and cholesterol by bovine and human cytochromes P450scc. Kinetic parameters were determined with substrates and P450scc incorporated into dioleoylphosphatidylcholine (PL) vesicles containing cardiolipin. Values for Kcat and Km are ±SE and are expressed as min^−1 and mol sterol-mol PL^−1, respectively. They were obtained from fitting hyperbolic curves to the kinetic data using KALEIDAGRAPH.

Bovine P450scc [2] = biological target: T2, Bovine P450scc; settings: 2-hydroxypropyl-β-cyclodextrin; cited from earlier work
MLN64 and StAR = settings: reconstituted in vitro system; compared with cholesterol; cited from earlier work
[3] = test system: mitochondria from skin cells; experiment: Side-chain cleavage of radiolabelled cholesterol by mitochondria isolated from skin cells; format: biochemical; settings: for conversion relative to that reported for placental mitochondria: cutaneous mitochondria versus literature value for placental mitochondria
Protocol: Mitochondrial fractions of the test tissue, i.e., skin, adrenals or placenta, were prepared by homogenizing the tissue in 5 vols ice-cold 0.25 M sucrose containing protease inhibitor cocktail (Sigma) (38). The homogenate was centrifuged at 600 g for 10 min at 4° C., and the resulting supernatant was centrifuged at 6000 g (placenta) or 9000 g (skin and adrenals) for 20 min at 4° C. to sediment the mitochondrial fraction. The pellet was resuspended in 0.25 M sucrose, and the mitochondrial fraction was again sedimented under the same conditions. The washed mitochondrial fraction was resuspended in 0.25 M sucrose and used for enzymatic reaction. For cultured skin cells, the above procedure was carried out after the cells had been swelled for 30 min in 20 mM HEPES, pH 7.4, before homogenization.
[4-^14C]Cholesterol (58 mCi.mmol^−1; Amersham Bioscience) was purified before its use as a substrate by mitochondria, by TLC on silica gel G plates in hexane/acetone (7:3, v/v). Isolated mitochondria (0.5 mg protein) were then preincubated (15 min at 37° C.) with purified [4-^14C]cholesterol (1 μCi, 34 μM) in 0.5 mL medium comprising 0.25M sucrose, 50 mM HEPES, pH 7.4, 20 mM KCl, 5 mM MgSO4, 0.2 mM EDTA, 0.4 μM adrenodoxin reductase, 6 μM adrenodoxin, 5 μM N-62 StAR protein (gift from W. Miller, University of California, San Francisco, Calif., USA) and 8 μM cyanoketone. The reaction was started by adding NADPH (0.5 mM) and isocitrate (5 mM), and samples were incubated at 37° C. for 150 min. The reaction was stopped by the addition of 1 mL ice-cold methylene chloride, and the incubation mixture extracted twice more with 1 mL methylene chloride. The fractions were combined, dried under nitrogen, and subjected to TLC on silica gel G plates and developed with hexane/acetone (7:3, v/v). Radiolabelled products were visualized using a phosphoimager, the steroids eluted from the plate with chloroform/methanol (1:1, v/v), and the associated radioactivity measured by scintillation counting.

[4] = cutaneous mitochondria, 34 μM substrate, 150 min at 37° C.

SMILES	kcat relative to that for cholesterol (Human P450scc) [%]	kcat (Human P450scc) [s⁻¹]	kcat (Bovine P450scc [1]) [s⁻¹]	kcat relative to that for cholesterol (Bovine P450scc [1]; substrate dissolved in membrane of phospholipid vesicles) [%]	Vmax compared with cholesterol (Bovine P450scc [2])	efficiency of transport from donor to acceptor vesicles (MLN64 and StAR)	conversion relative to that reported for placental mitochondria [3] [%]	conversion relative to that reported for placental mitochondria ([3]; listed as [4-^14C]-cholesterol)	rate of conversion into pregnenolone [3, 4] [%]	rate of conversion into progesterone [3, 4] [%]
CC(C)CCC[C@@H](C)[C@H]1CC[C@H]2C3=CC=C4C[C@@H](O)CC[C@]4(C)[C@H]3CC[C@]12C [7-DHC, cholesta-5,7-dien-3β-ol]	70	0.222 ± 0.0067	0.407 ± 0.0183	62	same Vmax for 7-DHC and cholesterol	efficiency similar to that for cholesterol	–	–	–	–
CC(C)CCC[C@@H](C)[C@H]1CC[C@H]2[C@@H]3CC=C4C[C@@H](O)CC[C@]4(C)[C@H]3CC[C@]12C [Cholesterol, cholesterol]	–	0.317 ± 0.0067	0.655 ± 0.0283	–	–	–	–	–	–	–
CC(C)CCC[C@@H](C)[C@H]1CC[C@H]2[C@@H]3CC=C4[14CH2][C@@H](O)CC[C@]4(C)[C@H]3CC[C@]12C [[4-^14C]cholesterol, [4-^14C]Cholesterol]	–	–	–	–	–	–	~1	approximately 1%	0.14	0.04

Source: US7253293B2, “Enzymatic method to produce 7-dehydropregnenolone, vitamin D3-like compounds and derivatives thereof” (priority 2004, dated 2007)
